Columns and labels:
C57BL/6 mice = test: MK801 induced abnormally persistent latent inhibition; assay type: in vivo; conditions: 4 tone-shock pairings to produce low LI
Protocol: C57BL/6 mice will be used to investigate latent inhibition (LI) conditioned emotional response cessation of drinking model in mice as described in, e.g., Bay-Richter, et al., Enhanced Latent Inhibition in Dopamine Receptor-Deficient Mice is Sex-Specific for the D1 but not D2 Receptor Subtype: Implications for Antipsychotic Drug Action, Int. J. Neuropsychopharmacol. […] On Day 1 to Day 6, animals will undergo lick training where mice will have access to water in a chamber for 15 minutes and the number of licks per animal will be recorded. […] One group will receive 20 presentations [determined from prior experiments to produce reduced LI in controls] of a 5 second 85 dB tone with a 15 second inter-stimulus interval (pre-exposed group, PE); a control group of non-pre-exposed (NPE) mice will be placed in a testing chamber with access to water withdrawn for an identical period of time but will not receive a tone pre-exposure. […] Number of licks for each animal will be recorded and time taken to complete 80-90 licks (A) and 90-100 licks (B) recorded. […] A suppression ratio (SR) will be calculated according to the formula A/(A+B) yielding a scale of […]. […]
In a sixth series of experiments, the ability of the combined Tropisetron and Varenicline treatment to reverse the MK801 induced abnormally persistent latent inhibition effect will be assessed. […]

[1] = cited from earlier work

| Compound | effect of MK801 on latent inhibition (C57BL/6 mice) | absorption from the gastrointestinal tract ([1]; background statement) | off-target gastrointestinal side effects ([1]; chronic administration, due to 5-HT3 receptor inhibitory activity) | cognitive effects in patients with schizophrenia ([1]; patients with schizophrenia, background statement) |
| --- | --- | --- | --- | --- |
| C[C@]12N[C@H](Cc3ccccc31)c1ccccc12 [MK801] | produce abnormally persistent latent inhibition | – | – | – |
| CN1[C@@H]2CC[C@H]1C[C@@H](OC(=O)c1c[nH]c3ccccc13)C2 [Tropisetron] | – | almost completely absorbed | a reduction in gut transit and constipation | some pro-cognitive effects |

Reference: patent US12594270B2, “Schizophrenic disorder treatment using combination therapy” (Cambridge Cognition Limited, priority 2019, dated 2026)
